Laboratory results taken from PMC10185561, “RagD auto-activating mutations impair MiT/TFE activity in kidney tubulopathy and cardiomyopathy syndrome” (Nature Communications, 2023).

Target: T1, GST-RagD (Homo sapiens, UniProt Q9NQL2)
T1 construct: gene RRAGD; GST fusion from pET24d(+) in E. coli Rosetta (DE3), glutathione Sepharose; RagD alone without RagA/B; GST tag kept
Assay: UV crosslinking of alpha-32P-GTP, SDS-PAGE, autoradiography
Type: binding
Conditions: labelled compound; 1 nM alpha-32P-GTP; 31.25 nM to 2 uM protein; 2 mM MgCl2; 50 mM HEPES pH 7.5; 100 mM potassium acetate; 4 h at 4 C

T1 sequence (Q9NQL2 whole entry, the tested form may be a part): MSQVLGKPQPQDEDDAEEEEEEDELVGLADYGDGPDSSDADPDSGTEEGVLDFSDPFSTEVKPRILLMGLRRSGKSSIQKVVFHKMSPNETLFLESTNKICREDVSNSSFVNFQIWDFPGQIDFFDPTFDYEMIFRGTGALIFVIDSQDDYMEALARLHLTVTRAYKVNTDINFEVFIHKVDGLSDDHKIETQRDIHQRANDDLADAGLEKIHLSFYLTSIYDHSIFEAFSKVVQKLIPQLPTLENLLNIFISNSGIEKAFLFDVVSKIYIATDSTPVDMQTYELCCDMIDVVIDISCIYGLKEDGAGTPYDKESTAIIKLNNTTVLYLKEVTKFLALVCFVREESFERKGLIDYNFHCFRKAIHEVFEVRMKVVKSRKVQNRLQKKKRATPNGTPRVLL

SMILES: Nc1nc2c(ncn2[C@@H]2O[C@H](COP(=O)(O)OP(=O)(O)OP(=O)(O)O)[C@@H](O)[C@H]2O)c(=O)[nH]1 [GTP]
- UV crosslinking of alpha-32P-GTP, SDS-PAGE, autoradiography: WT RagD bound GTP in a concentration-dependent manner
